# Experiment: Phase Ib dose escalation: safety and tolerability (CTCAE v4.03), MTD
# Format: in vivo, human
# Parameters: key to Hypercalcemia, CTCAE-Grade / Hypophosphatemia, CTCAE-Grade / Cholestasis, CTCAE-Grade / Nausea, CTCAE-Grade / Hypertension, CTCAE-Grade / Upper respiratory tract infection, CTCAE-Grade / Hyponatremia, CTCAE-Grade / Hypomagnesemia, CTCAE-Grade / Ascites & death due to rapid progression of malignancy, CTCAE-Grade / Hypokalemia, CTCAE-Grade / Pyrexia, CTCAE-Grade / Hyperphosphatemia, CTCAE-Grade / AV Block 1°, CTCAE-Grade / Palpations, CTCAE-Grade: 1 is the mildest form of the specific symptom; 5 is death
# Details: for Hypercalcemia, CTCAE-Grade: relationship to IMP: Definitively
# From the text: This first-in-patient investigator-initiated phase Ib dose-escalation study followed a 3 + 3 dose-escalation scheme with a planned maximal inclusion of 48 participants allocated to eight cohorts of increasing doses. Outcomes were safety, tolerability, pharmacokinetics, and preliminary efficacy of ITPP with participants in this exploratory, prospective, open-label and unblinded, unrandomized, single-center investigation being enrolled at the University Hospital Zurich (USZ), Switzerland. Written informed consent was obtained of all participants before study inclusion after a time of consideration of at least 24 h. Written consent included the reporting and publication of individual, anonymized patient data. The study adhered to the principles of the Declaration of Helsinki, current good clinical practice guidelines and all ethical regulations. The study protocol was approved by the responsible independent ethics committee of Zurich (KEK-ZH-Nr. 2014-0374) and the national regulatory authority Swissmedic (2015DR1009) and is provided in the Supplementary Note 1. The study setup was published before inclusion start[55] and the trial first registered at ClinicalTrials.gov (NCT02528526) on 11/11/2014. After 6 sequential reviews requiring minor editorial changes, final registration at ClinicalTrials.gov was obtained on the 08/18/2015. The first patient was included in the study 04/13/2015, with treatment started on the 04/27/2015. 4 patients were included in the trial before final registration at ClinicalTrials.gov (04/13/2015–07/20/2015). The last patient was included on the 06/12/2018, treatment started on the 06/18/2018 and the last treatment administered on 07/06/2018. Data cut-off for the study was the 12/31/2018. The manuscript was written in compliance with ICMJE guidelines.
# Primary objectives were (i) assessment of the safety and tolerability of increasing doses of ITPP, and (ii) establishment of the MTD (primary endpoint) according to the dose escalation schema. The primary outcome was measured by collection of adverse effects information according to Common Terminology Criteria for Adverse Events (CTCAE, US National Cancer Institute, version 4.03). Safety objectives and outcomes were identical with the primary endpoint.
# The study drug (brand name: OXY111A) was intravenously administered in 9 infusions, each lasting 8 h, over 3 weeks in an outpatient setting at the Phase 1 unit of the USZ Clinical Trials Center. Due to its anionic properties, ITPP acts a potent chelator of calcium. Therefore, administration with CaCl2 (Baxter) at a 1:0.75 molar ratio has been determined to prevent hypocalcaemia. Respective doses were calculated based on body surface area (DuBois/DuBois formula). Cohort 1 started at weekly doses of 5600 mg/m^2 weekly, equal to the maximal weekly dose tested in healthy volunteers (unpublished data from Normoxys®). Dose escalation was performed according to the predefined scheme (Fig. 1a, Supplementary Note 1: page 6) up to a maximum weekly dose of 43,700 mg/m^2. During infusion days, participants had continuous monitoring of vital signs and daily 12-electrode electrocardiograms. Electrolytes measurements and venous blood gas analyses were performed three-hourly, while complete blood count, coagulation and routine kidney/liver parameters were assessed twice daily.
# Severity of encountered AE was assessed following the CTCAE guidelines. Serious AE were defined as events being life-threatening, necessitating hospitalization, resulting in death or birth defects. DLT was defined as any AE ≥ grade 3 and sTET as any grade 2 AE considered to be definitely, probably or possibly related to ITPP. […] MTD was defined as the dose preceding the level at which 1 patient experienced a DLT or ≥3 patients experienced a sTET (Supplementary Note 1: page 6). The window for DLT/sTET/MTD assessment was from first dose of ITPP until first dose of chemotherapy or 10d following the last ITPP infusion. […]
# [1] = cohort 4, AE, relationship to IMP: Possibly
# [2] = cohort 4, AE, relationship to IMP: Unrelated
# [3] = cohort 4, SAE, relationship to IMP: Unrelated
# [4] = cohort 5, AE, relationship to IMP: Unlikely
# [5] = cohort 7, AE, relationship to IMP: Unlikely
# [6] = cohort 7, AE, relationship to IMP: Unrelated
# [7] = cohort 8, AE, relationship to IMP: Possibly
smiles,measurement,setting,value
"O=P1(O)OC2C3OP(=O)(O)OP(=O)(O)OC3C3OP(=O)(O)OP(=O)(O)OC3C2OP(=O)(O)O1 (stereo not drawn) [ITPP, Myo-inositol trispyrophosphate]","Icterus due to malignant obstruction (AE, not ITPP-related)","cohort 4, 7000 mg/m^2",0
same,"Lower gastrointestinal bleeding (AE, not ITPP-related)","cohort 4, 7000 mg/m^2",0
same,"Nausea & vomiting due to malignant infiltration of stomach (AE, not ITPP-related)","cohort 4, 7000 mg/m^2",0
same,"Neutropenia (AE, not ITPP-related)","cohort 4, 7000 mg/m^2",0
same,"Palpitations (AE, not ITPP-related)","cohort 4, 7000 mg/m^2",0
same,"Pyrexia (AE, not ITPP-related)","cohort 4, 7000 mg/m^2",0
same,"Hypercalcemia, CTCAE-Grade","cohort 4, AE",1
same,"Hypertension, CTCAE-Grade",[1],1
same,"Hypophosphatemia, CTCAE-Grade",[1],1
same,"Ascites, CTCAE-Grade",[2],3
same,"Nausea, CTCAE-Grade",[2],1
same,"Upper respiratory tract infection, CTCAE-Grade",[2],1
same,"Acute kidney injury grad 3, CTCAE-Grade",[3],3
same,"Hospitalisation due to fatigue/decreased state of health, CTCAE-Grade",[3],3
same,"AV Block 1° (AE, not ITPP-related)","cohort 5, 8750 mg/m^2",0
same,"Acute kidney injury grade 3 (AE, not ITPP-related)","cohort 5, 8750 mg/m^2",0
same,"Ascites due to oncological progress (AE, not ITPP-related)","cohort 5, 8750 mg/m^2",0
same,"C. difficile enteritis (AE, not ITPP-related)","cohort 5, 8750 mg/m^2",0
same,"Cholestasis (AE, not ITPP-related)","cohort 5, 8750 mg/m^2",0
same,"Fatigue (AE, not ITPP-related)","cohort 5, 8750 mg/m^2",0
same,Hyperphosphatemia (TET),"cohort 5, 8750 mg/m^2",0
same,Hypertension (TET),"cohort 5, 8750 mg/m^2",0
same,Hypomagnesemia (TET),"cohort 5, 8750 mg/m^2",0
same,Hypophosphatemia (TET),"cohort 5, 8750 mg/m^2",0
same,"Lower gastrointestinal bleeding (AE, not ITPP-related)","cohort 5, 8750 mg/m^2",0
same,"Nausea & vomiting due to malignant infiltration of stomach (AE, not ITPP-related)","cohort 5, 8750 mg/m^2",0
same,"Nausea (AE, not ITPP-related)","cohort 5, 8750 mg/m^2",0
same,"Neutropenia (AE, not ITPP-related)","cohort 5, 8750 mg/m^2",0
same,"Palpitations (AE, not ITPP-related)","cohort 5, 8750 mg/m^2",0
same,"Pyrexia (AE, not ITPP-related)","cohort 5, 8750 mg/m^2",0
same,"Upper respiratory tract infection (AE, not ITPP-related)","cohort 5, 8750 mg/m^2",0
same,"Hypercalcemia, CTCAE-Grade","cohort 5, AE",1
same,"Hypokalemia, CTCAE-Grade",[4],2
same,"Hyponatremia, CTCAE-Grade",[4],1
same,"Icterus/Stenosis D. choledochus, CTCAE-Grade",[4],3
same,"AV Block 1° (AE, not ITPP-related)","cohort 6, 10,500 mg/m^2",0
same,"Acute kidney injury grade 3 (AE, not ITPP-related)","cohort 6, 10,500 mg/m^2",0
same,"Ascites due to oncological progress (AE, not ITPP-related)","cohort 6, 10,500 mg/m^2",0
same,"C. difficile enteritis (AE, not ITPP-related)","cohort 6, 10,500 mg/m^2",0
same,"Cholestasis (AE, not ITPP-related)","cohort 6, 10,500 mg/m^2",0
same,"Fatigue (AE, not ITPP-related)","cohort 6, 10,500 mg/m^2",0
same,Hyperphosphatemia (TET),"cohort 6, 10,500 mg/m^2",0
same,Hypertension (TET),"cohort 6, 10,500 mg/m^2",0
same,"Hypokalemia (AE, not ITPP-related)","cohort 6, 10,500 mg/m^2",0
same,"Hyponatremia (AE, not ITPP-related)","cohort 6, 10,500 mg/m^2",0
same,Hypophosphatemia (TET),"cohort 6, 10,500 mg/m^2",0
same,"Icterus due to malignant obstruction (AE, not ITPP-related)","cohort 6, 10,500 mg/m^2",0
same,"Lower gastrointestinal bleeding (AE, not ITPP-related)","cohort 6, 10,500 mg/m^2",0
same,"Nausea & vomiting due to malignant infiltration of stomach (AE, not ITPP-related)","cohort 6, 10,500 mg/m^2",0
same,"Nausea (AE, not ITPP-related)","cohort 6, 10,500 mg/m^2",0
same,"Palpitations (AE, not ITPP-related)","cohort 6, 10,500 mg/m^2",0
same,"Pyrexia (AE, not ITPP-related)","cohort 6, 10,500 mg/m^2",0
same,"Upper respiratory tract infection (AE, not ITPP-related)","cohort 6, 10,500 mg/m^2",0
same,"Hypercalcemia, CTCAE-Grade","cohort 6, AE",1
same,"Hypomagnesemia, CTCAE-Grade","cohort 6, AE, relationship to IMP: Possibly",1
same,"Neutropenia, CTCAE-Grade","cohort 6, AE, relationship to IMP: Unlikely",3
same,"AV Block 1° (AE, not ITPP-related)","cohort 7, 12,390 mg/m^2",0
same,"Acute kidney injury grade 3 (AE, not ITPP-related)","cohort 7, 12,390 mg/m^2",0
same,"C. difficile enteritis (AE, not ITPP-related)","cohort 7, 12,390 mg/m^2",0
same,"Cholestasis (AE, not ITPP-related)","cohort 7, 12,390 mg/m^2",0
same,"Fatigue (AE, not ITPP-related)","cohort 7, 12,390 mg/m^2",0
same,Hyperphosphatemia (TET),"cohort 7, 12,390 mg/m^2",0
same,Hypertension (TET),"cohort 7, 12,390 mg/m^2",0
same,Hypomagnesemia (TET),"cohort 7, 12,390 mg/m^2",0
same,Hypophosphatemia (TET),"cohort 7, 12,390 mg/m^2",0
same,"Icterus due to malignant obstruction (AE, not ITPP-related)","cohort 7, 12,390 mg/m^2",0
same,"Lower gastrointestinal bleeding (AE, not ITPP-related)","cohort 7, 12,390 mg/m^2",0
same,"Nausea & vomiting due to malignant infiltration of stomach (AE, not ITPP-related)","cohort 7, 12,390 mg/m^2",0
same,"Nausea (AE, not ITPP-related)","cohort 7, 12,390 mg/m^2",0
same,"Neutropenia (AE, not ITPP-related)","cohort 7, 12,390 mg/m^2",0
same,"Palpitations (AE, not ITPP-related)","cohort 7, 12,390 mg/m^2",0
same,"Hypercalcemia, CTCAE-Grade","cohort 7, AE",1
same,"Hypokalemia, CTCAE-Grade",[5],1
same,"Upper respiratory tract infection, CTCAE-Grade",[5],2
same,"Ascites, CTCAE-Grade",[6],3
same,"Pyrexia, CTCAE-Grade",[6],1
same,"Acute kidney injury grade 3 (AE, not ITPP-related)","cohort 8, 14,500 mg/m^2",0
same,"Ascites due to oncological progress (AE, not ITPP-related)","cohort 8, 14,500 mg/m^2",0
same,"C. difficile enteritis (AE, not ITPP-related)","cohort 8, 14,500 mg/m^2",0
same,"Cholestasis (AE, not ITPP-related)","cohort 8, 14,500 mg/m^2",0
same,"Fatigue (AE, not ITPP-related)","cohort 8, 14,500 mg/m^2",0
same,"Hypokalemia (AE, not ITPP-related)","cohort 8, 14,500 mg/m^2",0
same,"Hyponatremia (AE, not ITPP-related)","cohort 8, 14,500 mg/m^2",0
same,Hypophosphatemia (TET),"cohort 8, 14,500 mg/m^2",0
same,"Icterus due to malignant obstruction (AE, not ITPP-related)","cohort 8, 14,500 mg/m^2",0
same,"Lower gastrointestinal bleeding (AE, not ITPP-related)","cohort 8, 14,500 mg/m^2",0
same,"Nausea & vomiting due to malignant infiltration of stomach (AE, not ITPP-related)","cohort 8, 14,500 mg/m^2",0
same,"Nausea (AE, not ITPP-related)","cohort 8, 14,500 mg/m^2",0
same,"Neutropenia (AE, not ITPP-related)","cohort 8, 14,500 mg/m^2",0
same,"Palpitations (AE, not ITPP-related)","cohort 8, 14,500 mg/m^2",0
same,"Pyrexia (AE, not ITPP-related)","cohort 8, 14,500 mg/m^2",0
same,"Upper respiratory tract infection (AE, not ITPP-related)","cohort 8, 14,500 mg/m^2",0
same,"Hyperphosphatemia, CTCAE-Grade",[7],1
same,"Hypomagnesemia, CTCAE-Grade",[7],1
same,"Hypertension, CTCAE-Grade","cohort 8, AE, relationship to IMP: Probably",1
same,"AV Block 1°, CTCAE-Grade","cohort 8, AE, relationship to IMP: Unrelated",1
same,sTET or DLT,cohorts 1–7,No significant treatment-emergent toxicity (sTET) or dose limiting toxicity (DLT) was encountered
same,Total number of adverse events (AE),during ITPP administration and 10-day follow-up,56
same,Increase in diastolic blood pressure,"grade I, three older male patients with pre-existing hypertension",< 20 mmHg
same,"Hypercalcemia of free ionized calcium, CTCAE grade (first sTET)","patient Nr. 27, cohort 8, single dose 14’500 mg/m^2",grade II
same,"Hypercalcemia of free ionized calcium, CTCAE grade (second sTET and DLT)","patient Nr. 28, cohort 8, single dose 14’500 mg/m^2",grade II and IV
same,Maximum tolerated dose (MTD),"single dose, intravenous over eight hours, nine infusions over three weeks","12,390 mg/m^2"

# — paper PMC8217170, “Phase Ib dose-escalation study of the hypoxia-modifier Myo-inositol trispyrophosphate in patients with hepatopancreatobiliary tumors” (Nature Communications, 2021)
